Measured values from patent US12569468B2, “Use of palovarotene in treatment against HBV virus” (YANG SHENG TANG COMPANY, LTD., priority 2020, dated 2026).

Assays:
[1] = test system: HBV; test: Inhibitory effect on HBV infection in infection model HepG2-hNTCP 2B1 (drug before infection); format: cell-based, hepatitis B virus; conditions: 1, 5, 25 μM, drug from 24 h before infection to day 8, compared with blank group
Text: The human sodium-taurocholate cotransporting polypeptide (hNTCP) gene and the red fluorescent protein (mCherry) gene were constructed in a bicistronic expression cassette regulated by tetracycline-inducible promoter, the expression cassette was stably integrated into HepG2-Tet On cells by using a lentiviral system, a stable cell line HepG2-hNTCP 2B1 with high expression of hNTCP was obtained by using flow cytometry sorting technology, and this cell model supported HBV infection and generated HBV-related indicators. (For the construction method of this cell model, please refer to: Ya-Li Zhang, Ying Gao, Jia-Li Cao, Jing-Hua Zhao, Tian-Ying Zhang, ChuanLai Yang, Hua-Long Xiong, Ying-Bin Wang, Shan-Hai Ou, Tong Cheng, Chang-Rong Chen, Quan Yuan & Ning-Shao Xia (2019), Robust in vitro assay for analyzing the neutralization activity of serum specimens against hepatitis B virus, Emerging Microbes & Infections, 8:1, 724-733, DOI: 10.1080/22221751.2019.1619485).
This experiment was carried out in a 24-well culture plate.
About 1.5×10^5 HepG2-hNTCP 2B1 cells were plated in each well, and 500 μL of medium B was added. After the cells adhered, medium A was used for replacement to perform the induction with Doxycycline during the whole experiment.
After 72 hours of the induction with Doxycycline, 500 μL of drug-containing medium A was added to each well to perform drug treatment for 24 h, and then the cells were infected with HBV, the virus amount for infection per well was 100 MOI. Before infection, HBV solution was obtained by diluting HBV in medium C, and the infection volume was 250 μL per well. […]
HBsAg (chemiluminescence enzyme immunoassay (CLEIA), product standard number: YZB/Guo 0346-2014) and HBeAg (enzyme-linked immunosorbent assay (ELISA), product standard number: YZB/Guo 0216-2013) were detected using the Beijing Wantai Company's detection kits, and the specifical detection operations were carried out according to the detection methods described in the instructions in the kits.
After the collected cells were washed with PBS, automated extraction was performed on a nucleic acid extraction workstation (purchased from GenMagBio, model: DOF-9696) using a viral DNA & RNA extraction kit (Beijing GenMagBio) (for the extraction procedure, please refer to the instrument manual) to obtain HBV DNA. The HBV DNA was quantified by probe real-time fluorescent quantitative PCR, in which the reagent used was Premix Ex Taq™ (Takara), the instrument used was Roche's LightCycler® 96, the primer sequences used for fluorescence quantification were shown in Table 1, and the fluorescence quantitative reaction system was shown in Table 2. […]

[2] = test system: HBV; test: Therapeutic effect in high copy replication model HepAD38; format: cell-based, hepatitis B virus; conditions: 5 μM
Text: HepAD38 is a hepatoma cell line (D genotype) that stably integrates the HBV genome, it expresses HBV under conditions that may be regulated with tetracycline. […] The HepAD38 has a DNA level about 10 times that of HepG2.2.15, and thus is a high-copy HBV in vitro replication cell model (for the construction method of this cell model, please refer to: Ladner S K, Otto M J, Barker C S, et al. Inducible expression of human hepatitis B virus (HBV) in stably transfected hepatoblastoma cells: a novel system for screening potential inhibitors of HBV replication. Antimicrob Agents Chemother. 1997; 41(8):1715-1720.).
This experiment was carried out in a 24-well culture plate. […] About 4×10^5HepAD38 cells were plated in each well, 500 μL of medium G containing tetracycline hydrochloride (Tetracycline) was added to each well, Day 0 was set 48 h after the cells were plated, and the medium G containing tetracycline hydrochloride (Tetracycline) was removed at the same time, fresh drug-containing medium F was used for replacement, and then fresh drug-containing medium F was used for replacement every two days until the 8th day, and the levels of HBsAg in the cell supernatant and intracellular HBV DNA were detected on the 8th day. For the method for detection, please refer to Example 1.

[3] = test system: HepG2 hNTCP 2B1; test: Safety assessment, CCK-8 cell activity, HepG2-hNTCP 2B1; format: cell-based; conditions: 1 μM, 5 μM and 25 μM, 6 days treatment
Protocol: This experiment was carried out in a 96-well culture plate, with 8×10^4 corresponding cells plated in each well, and the corresponding medium volume was 100 μL, in which each drug to be tested in the HepG2-hNTCP 2B1, HepaRG M14A and primary hepatocyte experimental groups had three final concentrations of 1 μM, 5 μM and 25 μM, each drug to be tested in the HepAD38 cell experimental group had two final concentrations of 1 μM and 5 μM (the drug was diluted with the corresponding medium to the final concentrations, specifically please refer to Example 1, Example 2, Example 4 and Example 5), and to the blank group the same volume of culture medium without drug was added. After the cells had grown to a suitable density, drug was added to perform treatment for 6 days, during which, the medium was changed every two days with fresh drug-containing medium. After the drug treatment, 110 μL of medium containing Beyotime CCK-8 cell activity detection reagent (purchased from Beyotime, Art. No. C0038) (the volume ratio of medium to CCK-8 reagent was 100:10) was used for replacement, the cells were incubated at 37° C. for 30 min, and then all the supernatant was collected for detection of absorbance. The absorbance value was read on PHOMO microplate reader purchased from Zhengzhou Autobio.

[4] = p<0.05, dose-dependent in some extent

## CC1(C)CCC(C)(C)c2cc(Cn3cccn3)c(/C=C/c3ccc(C(=O)O)cc3)cc21 [Palovarotene]
[1]; p<0.0001, dose-dependent in some extent
  level of HBV cccDNA: effectively inhibit
[1]; p<0.001, dose-dependent in some extent
  level of intracellular HBV DNA: effectively inhibit
[1]; [4]
  level of HBeAg in the cell supernatant: effectively inhibit
  level of HBsAg in the cell supernatant: effectively inhibit
[2]; day 8, p<0.01
  surface antigen production (HBsAg in cell supernatant): significant inhibitory effect
[2]; day 8, p<0.05
  HBV DNA (intracellular): significant inhibitory effect
[3]
  CCK-8 absorbance value (cell activity) vs blank group: not significantly different
